Experimental data published in paper PMC11054303, “Design and Synthesis of Novel N-Benzylidene Derivatives of 3-Amino-4-imino-3,5-dihydro-4H-chromeno[2,3-d]pyrimidine under Microwave, In Silico ADME Predictions, In Vitro Antitumoral Activities and In Vivo Toxicity” (Pharmaceuticals, 2024).

Columns and labels:
T47D breast cancer cells = test system: T47D breast cancer cells; design: method as in PMID 15542776; conditions: cited from earlier work
Caco2 = assay: Antiproliferative assay, Caco2; format: cell-based, human; conditions: Homo sapiens, Caco-2; 48 h incubation; average of three assays, standard error ± 0.5 μM
Description: (§1) The potential antiproliferative activity of these novel 3-(N-phenylmethyliden)amino-4-imino-3,5-dihydro-4H-chromeno[2,3-d]pyrimidine 10(a-i) and 10-(N-phenylmethyliden)amino-11-imino-11H-naphto[1′,2′:5,6]pyrano[2,3-d]pyrimidine 10(j-l) was evaluated in a panel of eight tumoral cell lines and in diploid skin fibroblasts used as normal cell lines for control. For these antitumor assays, chosen cell lines represent diverse types of human cancer, which are, respectively, human hepatocellular carcinoma (Huh7 D12), human colon adenocarcinoma (Caco2), human breast adenocarcinoma (MDA-MB231), MDA-MB468 for human breast carcinoma which correspond to the Triple Negative Breast Cancer (TNBC), human colon carcinoma (HCT116), PC3 as cell line initiated from bone metastasis of grade IV prostatic adenocarcinoma from a person, MCF7 as breast cancer line isolated from a person and PANC1, as human pancreatic cancer cell line. The potential antiproliferative activity was preliminarily evaluated in vitro at a 25 μM single dose.
(§2) The IC50 was calculated from the full dose-response curve and used as a parameter for the antiproliferative activity of the new compounds.
(§3) Skin diploid fibroblastic cells were provided by BIOPREDIC International Company (Rennes, France). Huh-7D12 (Ref ECACC: 01042712), Caco2 (Ref ECACC: 86010202), MDA-MB-231 (Ref ECACC: 92020424), MDA-MB-468, HCT-116 (Ref ECACC: 91091005), PC3 (Ref ECACC: 90112714), and MCF7 cell lines were obtained from the ECACC collection. PANC1 cell lines, a generous gift of LBAI Inserm 1227 (Brest, France). Cells were grown according to ECACC recommendations in DMEM for Huh-D12, MDA-MB-231, MDA-MB-468 and fibroblast, in EMEM for Caco2, in McCoy’s for HCT-116 and RPMI for PC3 at 37 °C and 5% CO2. All culture media with 10% of FBS, 1% of penicillin-streptomycin and 2 mM glutamine.
(§4) Chemicals were solubilized in DMSO at a concentration of 10 mM (stock solution) and diluted in a culture medium to the desired final concentrations. […] The toxicity test of the chemicals on these cells was as follows: 2 × 10^3 cells for HCT-116 cells or 4 × 10^3 for the other cells were seeded in 96-multi-well plates in triplicate and left for 24 h for attachment, spreading and growing. Then, cells were exposed for 48 h to increasing concentrations of chemicals, ranging from 0.1 μM to 25 μM, in a final volume of 120 μL of culture medium. After 48 h of treatment, cells were washed in PBS and fixed in a cooled 90% ethanol/5% acetic acid solution for 20 min. The nuclei were stained with Hoechst 3342 (B2261 Merck Sigma-Aldrich) and counted. Image acquisition and analysis were performed using automated imaging analysis with a Cellomics Arrayscan VTI/HCS Reader (Thermo/Scientific, Waltham, MA, USA). The survival percentages were calculated as the percentage of cell number after chemical treatment over cell number after DMSO treatment. The IC50 was graphically determined.

[1] = Antiproliferative assay, Caco2; format: cell-based, human; conditions: human, Caco-2; SI = IC50 fibroblasts/IC50 on Caco2; read-out: Selectivity Index (SI) Caco2
Description: as §1, §2, §3, §4

MDA MB231 = assay: Antiproliferative assay, MDA MB231; format: cell-based, human; conditions: for IC50: Homo sapiens, MDA-MB-231, 48 h incubation, average of three assays, standard error ± 0.5 μM; for Selectivity Index (SI) MDA MB231: SI = IC50 fibroblasts/IC50 on MDA MB231
Description: as §1, §2, §3, §4

Fibroblasts = assay: Antiproliferative assay, diploid skin fibroblasts (normal cells); format: cell-based; conditions: for IC50: Fibroblast, 48 h incubation, average of three assays, standard error ± 0.5 μM
Description: as §1, §2, §3, §4

tumor cell lines = assay: Antiproliferative assay, panel of tumoral cell lines; format: cell-based; conditions: Homo sapiens, 48 h, summary over tumoral cell lines of Table 3, 48 h; read-out: IC50 on tumor cell lines (span over the panel)
Description: as §1, §2, §3, §4

HCT 116 = assay: Antiproliferative assay, HCT 116; format: cell-based, human; conditions: for IC50: Homo sapiens, HCT-116, 48 h incubation, average of three assays, standard error ± 0.5 μM; for Selectivity Index (SI) HCT 116: SI = IC50 fibroblasts/IC50 on HCT 116
Description: as §1, §2, §3, §4

PC3 = assay: Antiproliferative assay, PC3; format: cell-based, human; conditions: for IC50: Homo sapiens, PC-3, 48 h incubation, average of three assays, standard error ± 0.5 μM; for Selectivity Index (SI) PC3: SI = IC50 fibroblasts/IC50 on PC3
Description: as §1, §2, §3, §4

PANC1 = assay: Antiproliferative assay, PANC1; format: cell-based, human; conditions: for IC50: Homo sapiens, PANC-1, 48 h incubation, average of three assays, standard error ± 0.5 μM; for Selectivity Index (SI) PANC1: SI = IC50 fibroblasts/IC50 on PANC1
Description: as §1, §2, §3, §4

MDA MB468 = assay: Antiproliferative assay, MDA MB468; format: cell-based, human; conditions: for IC50: Homo sapiens, MDA-MB-468, 48 h incubation, average of three assays, standard error ± 0.5 μM; for Selectivity Index (SI) MDA MB468: SI = IC50 fibroblasts/IC50 on MDA MB468
Description: as §1, §2, §3, §4

Huh7 D12 = assay: Antiproliferative assay, Huh7 D12; format: cell-based, human; conditions: for IC50: Homo sapiens, Huh-7D12, 48 h incubation, average of three assays, standard error ± 0.5 μM; for Selectivity Index (SI) Huh7 D12: SI = IC50 fibroblasts/IC50 on Huh7 D12
Description: as §1, §2, §3, §4

MCF7 = assay: Antiproliferative assay, MCF7; format: cell-based, human; conditions: for IC50: Homo sapiens, MCF7, 48 h incubation, average of three assays, standard error ± 0.5 μM; for Selectivity Index (SI) MCF7: SI = IC50 fibroblasts/IC50 on MCF7
Description: as §1, §2, §3, §4

[2] = test system: zebrafish Danio rerio embryos; assay: Angiogenesis of vessels in mCherry transgenic zebrafish embryos; format: in vivo; conditions: 1.67 μM, 72 hpf
Description: Another interest of zebrafish Danio rerio is the possibility to deeply evaluate the effects of angiogenic compounds. In our model, the formation of most vessels is complete, the circulation is present, and the heart is beating after 28 hpf of development. Angiogenesis begins in the somites and in the anterior portion of the embryos. Many zebrafish blood vessels form by angiogenic sprouting and appear to require the same proteins required for blood vessel growth in mammals. By using the mCherry line transgenic zebrafish, it is possible to analyze the direct effect of a compound on the angiogenesis of dorsal vessels. Zebrafish embryos can survive up to a week without an intact circulatory system because defective vessel formation has no immediate lethal effect.
These experiments were performed in four technical replicates.

[3] = test system: zebrafish Danio rerio embryos; conditions: transgenic line Tg(kdrl:Hsa.HRAS-mCherry)s896, zebrafish (Danio rerio), in vivo, 72 hpf, 1.67 μM
Description: (§5) Fertilized eggs at 24–48 h post-fertilization (hpf) were selected and transferred to a 96-well plate (1 embryo/well). […] DMSO (0.6%) was used as vehicle control for the test compounds. The exposure duration continued up to 72 hpf because it is the endpoint of embryonic development [41]. The dead embryos were eliminated, and the fertilized eggs were imaged at 0, 24, 48 and 72 hpf.
(§6) Eggs were collected 2 h post-fertilization (hpf) and kept in glass Petri dishes containing water for subsequent examination under a binocular microscope to confirm fertilization. […] Chemical treatments were performed by adding DMSO alone (negative control), or test molecule. These experiments were performed in four technical replicates.
(§7) The experiments were performed using a Zeiss inverted fluorescent microscope (Observer Z1). The zebrafish toxicological test (Zebratox) was realized as follows: the 24 h post-fertilization embryos were arrayed by hand with one embryo per well in black-walled 96-well microplates for fluorescence assays (Perkin Elmer, Waltham, MA, USA). The embryos were treated before hatching from 0 to 72 h post-fertilization. The 20 mM DMSO stock chemicals were diluted in fish water and added to the wells at final concentrations from 0.0 2µM to 5 μM. The negative control (0.25% DMSO) was added to each replicate plate. The experiments were realized in triplicate in three independent plates. […] The zebrafish fertilized eggs were provided by the ImPACcell-Biosit Zebrafish facilities (Rennes, France).

[4] = test system: zebrafish Danio rerio embryos; assay: Zebrafish embryo toxicity assay (Zebratox, FET); conditions: low doses
Description: as §5, §6, §7

Compound	IC50 (Caco2) [nM]	selectivity ratio at 48 h [1]	IC50 (MDA MB231) [nM]	Selectivity Index (SI) MDA MB231 (MDA MB231)	IC50 (Fibroblasts) [nM]	IC50 (tumor cell lines) [nM]	IC50 (HCT 116) [nM]	Selectivity Index (SI) HCT 116 (HCT 116)	IC50 (PC3) [nM]	Selectivity Index (SI) PC3 (PC3)	IC50 (PANC1) [nM]	IC50 (MDA MB468) [nM]	Selectivity Index (SI) MDA MB468 (MDA MB468)	IC50 (Huh7 D12) [nM]	Selectivity Index (SI) Huh7 D12 (Huh7 D12)	IC50 (MCF7) [nM]	Selectivity Index (SI) MCF7 (MCF7)	melting point [°C]	other results
2-amino-4-(3-bromo-4,5-dimethoxyphenyl)-4H-chromene-3-carbonitrile [MX 58151]																			GI50 (T47D breast cancer cells): 37 nM
N=c1c2c(ncn1/N=C/c1ccccc1O)Oc1ccccc1C2 [10e, (3E) 3-N-(2-Hydroxyphenylmethylidene)amino-4-imino-3,5-dihydro-4H-chromeno[2,3-d]pyrimidine]	2000	0.8	1500	1.07	1600	1000 to 25000	300	5.33	150	10.67	2200	2500	0.64	1700	0.94	1700	0.94		effect on fibroblasts (healthy skin cell), in words (Fibroblasts): cytotoxic on fibroblasts; Selectivity Index (SI) PANC1 (PANC1): 0.73
N=c1c2c(ncn1/N=C/c1ccccc1)Oc1ccccc1C2 [10f, (3E) 3-N-(Phenylmethylidene)amino-4-imino-3,5-dihydro-4H-chromeno[2,3-d]pyrimidine]	> 25000		> 25000		> 25000	> 25000	10000	> 2.5	> 25000		> 25000	> 25000		> 25000		> 25000		232 to 234	
COc1cccc2c1Oc1ncn(/N=C/c3ccccc3)c(=N)c1C2 [10i, (3E) 3-N-(Phenylmethylidene)amino-4-imino-9-methoxy-3,5-dihydro-4H-chromeno[2,3-d]pyrimidine]	800	> 31.3	600	> 41.7	> 25000		620	> 40.3	770	> 32.5		300	> 83.3	490	> 51.0	450	> 55.6	252 to 254	
N=c1c2c(ncn1/N=C/c1ccccc1O)Oc1ccc3ccccc3c1C2 [10k, (10E) 10-N-(2-Hydroxyphenylmethylidene)amino-11-imino-11H-naphto[1′,2′:5,6]pyrano[2,3-d]pyrimidine]	1200	1.25	1100	1.34	1500	1000 to 25000	600	2.5	400	3.75	1600	1800	0.83	1500	1	1200	1.25		effect on fibroblasts (healthy skin cell), in words (Fibroblasts): cytotoxic on fibroblasts; Selectivity Index (SI) PANC1 (PANC1): 0.94
N=c1c2c(ncn1/N=C/c1ccccc1)Oc1ccc3ccccc3c1C2 [10l, (10E) 10-N-(Phenylmethylidene)amino-11-imino-11H-naphto[1′,2′:5,6]pyrano[2,3-d]pyrimidine]	> 25000		> 25000		> 25000	> 25000	> 25000		> 25000			> 25000		> 25000		> 25000		≥ 260	
CNC(=O)c1cc(Oc2ccc(NC(=O)Nc3ccc(Cl)c(C(F)(F)F)c3)cc2)ccn1 [sorafenib, reference compound]																			effect on angiogenesis of the vessels [2]: absence of angiogenesis of the vessels; effect on angiogenesis of the vessels ([2]; listed as Sorafenib): inhibition of the dorsal vessel vascularization; toxicity, fraction of the embryos [3]: 4/5; development of the embryos ([4]; 24 hpf): normal development; morphological development of the embryos ([4]; 48 hpf): morphological development is delayed
